Patent publication US11191742B2, “Methods of treating neurodegenerative disorders in a particular population” (ALZHEON, INC., priority 2015, dated 2021)

Experiments:
[1] = tested on: APOE4+ patients with Alzheimer's disease; assay: Phase 3 trials of tramiprosate, ADAS-Cog score, all APOE4+ patients; assay type: in vivo, human; settings: for ADAS-Cog Score Change over Standard of Care (Δ improvement vs control): All APOE4+ patients ≤85 years
Experimental: (§1) The delta value in all of these tables is calculated by measuring the increase in score over baseline for each patient in a treatment group and obtaining the mean increase for such group and then subtracting that value from the mean increase in score over baseline for all patients in the placebo group. Thus, a positive delta value in these tables represents an improvement over the placebo group. Phase 3 human clinical trials of tramiprosate to treat Alzheimer's disease at doses of 100 mg BID and 150 mg BID for up to 78 weeks were run in both North America and Europe (1691 total patients enrolled). Placebos in both trials were treatment with donepezil either alone or in combination with memantine. ADAS-Cog scores and CDR-SB scores were obtained every 13 weeks for patients that remained in the trial. The patients were genotyped for APOE4 and the severity of their disease was measured using MMSE prior to the beginning of treatment. The data from both trials were merged for certain statistical analyses. […] We then performed additional subgroup analysis, subgrouping by APOE4 genotype/allele status (APOE4 heterozygous or APOE4 homozygous) and by disease severity (mild vs moderate) to determine if the number of c alleles and/or the severity of disease predicted a better outcome of tramiprosate therapy. […] In Table 1, *control treatment is donepezil either alone or in combination with memantine. Positive delta values quantitate the amount by which average increase in ADAS-Cog Score points above baseline for the control group exceeded the average increase in ADAS-Cog Score points above baseline for the treatment group.

[2] = tested on: APOE4 heterozygous patients with Alzheimer's disease; assay: Phase 3 trials of tramiprosate, ADAS-Cog score, heterozygous APOE4+ patients; assay type: in vivo, human; settings: Heterozygous APOE4+ patients ≤85 years
Experimental: as §1, with “3,” for “1,”

[3] = Mild (MMSE 20-26), 100 mg BID, 52 weeks
[4] = Mild (MMSE 20-26), 100 mg BID, 65 weeks
[5] = Mild (MMSE 20-26), 100 mg BID, 78 weeks
[6] = Mild (MMSE 20-26), 150 mg BID, 52 weeks
[7] = Mild (MMSE 20-26), 150 mg BID, 65 weeks
[8] = Mild (MMSE 20-26), 150 mg BID, 78 weeks
[9] = Mild-to-Moderate (MMSE 16-26), 100 mg BID, 52 weeks
[10] = Mild-to-Moderate (MMSE 16-26), 100 mg BID, 65 weeks
[11] = Mild-to-Moderate (MMSE 16-26), 100 mg BID, 78 weeks
[12] = Mild-to-Moderate (MMSE 16-26), 150 mg BID, 52 weeks
[13] = Mild-to-Moderate (MMSE 16-26), 150 mg BID, 65 weeks
[14] = Mild-to-Moderate (MMSE 16-26), 150 mg BID, 78 weeks
[15] = Moderate (MMSE 16-19), 100 mg BID, 52 weeks
[16] = Moderate (MMSE 16-19), 100 mg BID, 65 weeks
[17] = Moderate (MMSE 16-19), 100 mg BID, 78 weeks
[18] = Moderate (MMSE 16-19), 150 mg BID, 52 weeks
[19] = Moderate (MMSE 16-19), 150 mg BID, 65 weeks
[20] = Moderate (MMSE 16-19), 150 mg BID, 78 weeks

NCCCS(=O)(=O)O [Tramiprosate, 3-amino-1-propanesulfonic acid]
Effect on ADAS-Cog compared with the placebo ([1]; APOE4+ subgroup, both 100 mg and 150 mg treatment groups): statistically significant effect
ADAS-Cog Score Change over Standard of Care (Δ improvement vs control) [1, 3]: 0.82 points
ADAS-Cog Score Change over Standard of Care (Δ improvement vs control) [1, 4]: 0.99 points
ADAS-Cog Score Change over Standard of Care (Δ improvement vs control) [1, 5]: 1.3 points
ADAS-Cog Score Change over Standard of Care (Δ improvement vs control) [1, 6]: 0.17 points
ADAS-Cog Score Change over Standard of Care (Δ improvement vs control) [1, 7]: 0.71 points
ADAS-Cog Score Change over Standard of Care (Δ improvement vs control) [1, 8]: 0.27 points
ADAS-Cog Score Change over Standard of Care (Δ improvement vs control) [1, 9]: 1.67 points
ADAS-Cog Score Change over Standard of Care (Δ improvement vs control) [1, 10]: 1.82 points
ADAS-Cog Score Change over Standard of Care (Δ improvement vs control) [1, 11]: 2.03 points
ADAS-Cog Score Change over Standard of Care (Δ improvement vs control) [1, 12]: 0.95 points
ADAS-Cog Score Change over Standard of Care (Δ improvement vs control) [1, 13]: 1.23 points
ADAS-Cog Score Change over Standard of Care (Δ improvement vs control) [1, 14]: 0.77 points
ADAS-Cog Score Change over Standard of Care (Δ improvement vs control) [1, 15]: 3.45 points
ADAS-Cog Score Change over Standard of Care (Δ improvement vs control) [1, 16]: 3.45 points
ADAS-Cog Score Change over Standard of Care (Δ improvement vs control) [1, 17]: 3.32 points
ADAS-Cog Score Change over Standard of Care (Δ improvement vs control) [1, 18]: 2.52 points
ADAS-Cog Score Change over Standard of Care (Δ improvement vs control) [1, 19]: 2.23 points
ADAS-Cog Score Change over Standard of Care (Δ improvement vs control) [1, 20]: 1.57 points
ADAS-Cog Score Change over Standard of Care (Δ improvement vs control) [2, 3]: 0.9 points
ADAS-Cog Score Change over Standard of Care (Δ improvement vs control) [2, 4]: −0.3 points
ADAS-Cog Score Change over Standard of Care (Δ improvement vs control) [2, 5]: 0.8 points
ADAS-Cog Score Change over Standard of Care (Δ improvement vs control) [2, 6]: 0.1 points
ADAS-Cog Score Change over Standard of Care (Δ improvement vs control) [2, 7]: −0.6 points
ADAS-Cog Score Change over Standard of Care (Δ improvement vs control) [2, 8]: −0.5 points
ADAS-Cog Score Change over Standard of Care (Δ improvement vs control) [2, 9]: 2.0 points
ADAS-Cog Score Change over Standard of Care (Δ improvement vs control) [2, 10]: 0.8 points
ADAS-Cog Score Change over Standard of Care (Δ improvement vs control) [2, 11]: 1.1 points
ADAS-Cog Score Change over Standard of Care (Δ improvement vs control) [2, 12]: 0.5 points
ADAS-Cog Score Change over Standard of Care (Δ improvement vs control) [2, 13]: 0.0 points
ADAS-Cog Score Change over Standard of Care (Δ improvement vs control) [2, 14]: −0.4 points
ADAS-Cog Score Change over Standard of Care (Δ improvement vs control) [2, 15]: 4.4 points
ADAS-Cog Score Change over Standard of Care (Δ improvement vs control) [2, 16]: 3.4 points
ADAS-Cog Score Change over Standard of Care (Δ improvement vs control) [2, 17]: 2 points
ADAS-Cog Score Change over Standard of Care (Δ improvement vs control) [2, 18]: 1.5 points
ADAS-Cog Score Change over Standard of Care (Δ improvement vs control) [2, 19]: 1.4 points
ADAS-Cog Score Change over Standard of Care (Δ improvement vs control) [2, 20]: 0 points
